Reference: US4552898A, “[3.2.0]Bicycloheptanone oxime ethers with valuable therapeutic properties” (Syntex (U.S.A.) Inc., priority 1983, dated 1985)

Experiments:
[1] = system: human platelet-rich plasma; test: In vitro human platelet aggregation inhibition (turbidimetric); assay type: cell-based; conditions: ADP inducer
Procedure: Biological activity of the claimed compounds is tested by in vitro human platelet aggregation assay. This assay determines the effectiveness of the compounds in inhibiting the platelet aggregation
Immediately thereafter, the platelets start to secrete large quantities of adenosine diphosphate (ADP) which, in turn activates the other platelets that adhere to the original platelets and eventually form the plug which closes the rupture of the vascular wall. In medical parlance the first process is called collagen-induced primary platelet aggregation, the second process is called ADP-mediated secondary platelet aggregation. This situation can be artificially simulated by natural platelet aggregation inducers such as collagen, ADP, or arachidonic acid to the human platelet-rich plasma.
The blood samples used for the assay are collected into sodium citrate anticoagulant of a final concentration of 0.38%. The platelet-rich plasma is collected after centrifugation at 200 rpm at room temperature. To determine whether the platelet-rich plasma needs dilution to obtain optimal optical density, citrated plasma containing […] platelets per milliliter is pipetted into a Spinco transparent plastic centrifuge tube. The tube is inserted into a Unicam SP 400 absorptiometer and the light at the wave-length of 600 mμ is passed through the tube. The dark current is set at infinity and the optical density of distilled water at zero. The plasma is stirred by a magnetic stirrer. If necessary, platelet-rich plasma is diluted with 0.154M sodium chloride to obtain appropriate optical density
Platelet-rich plasma of appropriate optical density is mixed with appropriate concentration of tested compounds to make up 1 ml of mixture of platelet-rich plasma and tested compound. The concentration of each tested compound varied from 1.0×10^-5 moles to 1.0×10^-9 moles. Each concentration is tested individually by number of repetitions varying from 1 to 6. Each sample mixture consisting of platelet-rich plasma and tested compound is incubated for about 3 to 5 minutes under constant stirring at 500 rpm at 30° C. Thereafter, a predetermined optimal concentration of platelet aggregation inducer is added to each sample mixture. Inducers which are used for testing may be chosen from: […]
Adenosine Diphosphate (ADP) is purchased from Sigma Chemical Company. ADP inducer solution of final concentration of 5 μmol is prepared by dissolving 214 mg of ADP in 1 ml of tris buffer (0.01M at pH 9 at 22° C.). […]
A tube with the mixture of platelet-rich plasma, tested compound and ADP inducer (5 μmol/10 μl) is inserted into the absorptiometer and optical density changes are recorded on chart. Aggregation of the platelets is determined from maximal optical density change. Maximal optical density of a mixture of platelet-rich plasma with inducer, but without the tested compounds, is taken as 100% of platelet aggregation. The maximal optical density of the sample mixture of platelet-rich plasma, ADP inducer and appropriate amount of tested compound is compared to the maximal optical density of the sample without tested compound and inhibitory effectiveness of tested compounds is calculated. For each sample the percentage of the platelet aggregation is calculated and if more than one measurement with the same concentration of the tested compounds are done, the final value is expressed as an average of all measurements with ±S.E. The inhibitory concentration is the effective concentration of tested compound which is able to prevent 50% of the platelet aggregation, where, without the tested compound, the platelet aggregation would have been 100%. PGE1 has an IC50 of 2-8×10^-8 M.

[2] = Acute toxicity in mice, single intraperitoneal administration; parameters: species or system Male Sim: (SW)f BR mice; conditions: mouse, in vivo, ip
Procedure: Male Sim: (SW)f BR mice weighing approximately 25 g were randomly assigned to treatment groups of 6 animals, caged together, and were given food and water ad libitum.
The test material was prepared as an aqueous solution or suspension in CMC vehicle (sodium carboxymethyl cellulose, 0.5 g; sodium chloride, 0.9 g; benzyl alcohol, 0.9 ml; Tween 80, 0.4 ml; and water to 100 ml). The test material and the control vehicle were administered once by the indicated route at a dose level of 10 ml per kg body weight.
Following administration of the test material on day 1, animals were observed daily and any deaths were recorded.

Structure (SMILES) | IC50 ([1]; Homo sapiens, Platelet) | further results
CCCCCC(O)C#CC1CC2C(=NOCC(=O)O)CC2C1O (stereo not drawn) [Compound 1, N--[2-endo-hydroxy-3-exo-(3αS--hydroxyoct-1-ynyl)bicyclo[3.2.0]hept-6-ylidene]aminooxyacetic acid] | – | IC50 [1]: 0.0186 µM
CCCCCC(O)C=CC1CC2C(=NOCC(=O)O)CC2C1O (stereo not drawn) [Compound 2, N--[2-endo-hydroxy-3-exo-(3αS--hydroxyoct-1-trans-enyl)bicyclo[3.2.0]hept-6-ylidene]aminooxyacetic acid] | 0.089 µM | –
CCCCCC(O)CCC1CC2C(=NOCC(=O)O)CC2C1O (stereo not drawn) [Compound 3, N--[2-endo-hydroxy-3-exo-(3αβS--hydroxyoct-1-yl)bicyclo[3.2.0]hept-6-ylidene]aminooxyacetic acid] | 1.4 µM | –
O=C(O)CON=C1CC2C1CC(C#CC(O)C1CCCC1)C2O (stereo not drawn) [Compound 4, N--[2-endo-hydroxy-3-exo-(3-hydroxy-3-cyclopentylprop-1-ynyl)bicyclo[3.2.0]hept-6-ylidene]aminooxyacetic acid] | 0.0125 µM | –
O=C(O)CON=C1CC2C1CC(/C=C/C(O)C1CCCC1)C2O (stereo not drawn) [Compound 5] | – | IC50 [1]: 0.0112 µM
CCCCCCCC(O)C#CC1CC2C(=NOCC(=O)O)CC2C1O (stereo not drawn) [Compound 9, N--[2-endo-hydroxy-3-exo-(3-hydroxydec-1-ynyl)bicyclo[3.2.0]hept-6-ylidene]aminooxyacetic acid] | 0.032 µM | –
CCCCCC(O)C#CC1CC2C(=NOCC(=O)O)CC2C1O (stereo not drawn) [Compound 11, N--[2-endo-hydroxy-3-exo-(3αβS--hydroxyoct-1-ynyl)bicyclo[3.2.0]hept-6-ylidene]aminooxyacetic acid] | – | IC50 [1]: 0.07 µM
CCCCCC(O)C#CC1CC2C(=NOCCC(=O)O)CC2C1O (stereo not drawn) [Compound 12, N--[2-endo-hydroxy-3-exo-(3αS--hydroxyoct-1-ynyl)bicyclo[3.2.0]hept-6-ylidene]-3-aminooxypropionic acid] | – | IC50 [1]: 0.031 µM
CCCCCC(O)C=CC1CC2C(=NOCCC(=O)O)CC2C1O (stereo not drawn) [Compound 13, N--[2-endo-hydroxy-3-exo-(3αS--hydroxyoct-1-trans-enyl)bicyclo[3.2.0]hept-6-ylidene]-3-aminooxypropionic acid] | 0.0069 µM | –
O=C(O)CCON=C1CC2C1CC(/C=C/C(O)C1CCCC1)C2O (stereo not drawn) [Compound 16, N--[2-endo-hydroxy-3-exo-(3α-hydroxy-3-cyclopentylprop-1-trans-enyl)bicyclo[3.2.0]hept-6-ylidene]-3-aminooxypropionic acid] | – | IC50 [1]: 0.0105 µM
O=C(O)CCON=C1CC2C1CC(/C=C/C(O)C1CCCCC1)C2O (stereo not drawn) [Compound 19, N--[2-endo-hydroxy-3-exo-(3α-hydroxy-3-cyclohexylprop-1-trans-enyl)bicyclo[3.2.0]hept-6-ylidene]-3-aminooxypropionic acid] | – | IC50 [1]: 0.081 µM
CCCCCCCC(O)C#CC1CC2C(=NOCCC(=O)O)CC2C1O (stereo not drawn) [Compound 21, N--[2-endo-hydroxy-3-exo-(3-hydroxydec-1-ynyl)bicyclo[3.2.0]hept-6-ylidene]-3-aminooxypropionic acid] | 0.117 µM | –
CCCCCCCC(O)CCC1CC2C(=NOCCC(=O)O)CC2C1O (stereo not drawn) [Compound 22, N--[2-endo-hydroxy-3-exo-(3-hydroxydec-1-yl)bicyclo[3.2.0]hept-6-ylidene]-3-aminooxypropionic acid] | 1.3 µM | –
CCCCCC(O)C#CC1CC2C(=NOCCC(=O)O)CC2C1O (stereo not drawn) [Compound 23, N--[2-endo-hydroxy-3-exo-(3-hydroxyoct-1-ynyl)bicyclo[3.2.0]hept-6-ylidene] -3-aminooxypropionic acid] | – | IC50 [1]: 0.175 µM
CCCCCC(O)C#CC1CC2C(=NOCCC(=O)O)CC2C1O (stereo not drawn) [Compound 24, N--[2-endo-hydroxy-3-exo-(3αβS--hydroxyoct-1-ynyl)bicyclo[3.2.0]hept-6-ylidene]-3-aminooxypropionic acid] | – | IC50 [1]: 0.043 µM
CCCCCC(O)C#CC1CC2C(=NOCCCC(=O)O)CC2C1O (stereo not drawn) [Compound 25, N--[2-endo-hydroxy-3-exo-(3αβS--hydroxyoct-1-ynyl)bicyclo[3.2.0]hept-6-ylidene]-4-aminooxybutyric acid] | 0.42 µM | –
CCCCCC(O)C#CC1C(O)CC2C(=NOCCC(=O)O)CC21 (stereo not drawn) [Compound 26, N--[3-endo-hydroxy-2-exo-(3αβS--hydroxyoct-1-ynyl)bicyclo[3.2.0]hept-6-ylidene]-3-aminooxypropionic acid] | 21 µM | –
CCCCCC(O)C#CC1C(O)CC2C(=NOCCCC(=O)O)CC21 (stereo not drawn) [Compound 27, N--[3-endo-hydroxy-2-exo-(3αβS--hydroxyoct-1-ynyl)bicyclo[3.2.0]hept-6-ylidene]-4-aminooxybutyric acid] | 1.1 µM | –
CCCCCC(O)C#CC1CC2C(=NOCCC(=O)O)CC2C1O (stereo not drawn) [Test Material] | – | LD50 [2]: > 120 mg/kg

Further lines, with some results ahead:

IC50 ([1]; Homo sapiens, Platelet) | Structure (SMILES) | further results
1 µM | O=C(O)CON=C1CC2C1CC(CCC(O)C1CCCC1)C2O (stereo not drawn) [Compound 6, N--[2-endo-hydroxy-3-exo-(3-hydroxy-3-cyclopentylprop-1-yl)bicyclo[3.2.0]hept-6-ylidene]aminooxyacetic acid] | –
0.024 µM | O=C(O)CON=C1CC2C1CC(C#CC(O)C1CCCCC1)C2O (stereo not drawn) [Compound 7, N--[2-endo-hydroxy-3-exo-(3-hydroxy-3-cyclohexylprop-1-ynyl)bicyclo[3.2.0]hept-6-ylidene]aminooxyacetic acid] | –
0.088 µM | O=C(O)CON=C1CC2C1CC(CCC(O)C1CCCCC1)C2O (stereo not drawn) [Compound 8, N--[2-endo-hydroxy-3-exo-(3-hydroxy-3-cyclohexylprop-1-yl)bicyclo[3.2.0]hept-6-ylidene]aminooxyacetic acid] | –
2.2 µM | CCCCCC(O)CCC1CC2C(=NOCCC(=O)O)CC2C1O (stereo not drawn) [Compound 14, N--[2-endo-hydroxy-3-exo-(3αβS--hydroxyoct-1-yl)bicyclo[3.2.0]hept-6-ylidene]-3-aminooxypropionic acid] | –
0.031 µM | O=C(O)CCON=C1CC2C1CC(C#CC(O)C1CCCC1)C2O (stereo not drawn) [Compound 15, N--[2-endo-hydroxy-3-exo-(3-hydroxy-3-cyclopentylprop-1-ynyl)bicyclo[3.2.0]hept-6-ylidene]-3-aminooxypropionic acid] | –
1.02 µM | O=C(O)CCON=C1CC2C1CC(CCC(O)C1CCCC1)C2O (stereo not drawn) [Compound 17, N--[2-endo-hydroxy-3-exo-(3-hydroxy-3-cyclopentylprop-1-yl)bicyclo[3.2.0]hept-6-ylidene]-3-aminooxypropionic acid] | –
0.0084 µM | O=C(O)CCON=C1CC2C1CC(C#CC(O)C1CCCCC1)C2O (stereo not drawn) [Compound 18, N--[2-endo-hydroxy-3-exo-(3-hydroxy-3-cyclohexylprop-1-ynyl)bicyclo[3.2.0]hept-6-ylidene]-3-aminooxypropionic acid] | –
2.35 µM | O=C(O)CCON=C1CC2C1CC(CCC(O)C1CCCCC1)C2O (stereo not drawn) [Compound 20, N--[2-endo-hydroxy-3-exo-(3-hydroxy-3-cyclohexylprop-1-yl)bicyclo[3.2.0]hept-6-ylidene]-3-aminooxypropionic acid] | –
